Format in all cases: in vivo
In series [1] the test system is Echinochloa oryzacola Vasing. The experiment in a line: Test Example 1: herbicidal activity, application before weed generation in submerged conditions (symbol A). Conditions: application herbicide amount 320 g/ha. In outline:
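In a flooded pot test with alluvial soil, the emulsion-formulated compound was diluted with water to a predetermined amount and applied to the floodwater immediately on the sowing day. Pots were held in a greenhouse at 25–30 °C for 3 weeks before each weed was rated.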

The subject of series [2] is transplanted rice plant. The experiment in a line: Test Example 1: effect on crop, application before weed generation in submerged conditions (symbol a). Conditions: application herbicide amount 320 g/ha. An outline of the steps:
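Rice at 2.5 leaf stage transplanted into submerged soil (4 cm depth) sown with three weed species; herbicide applied before weed emergence.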

Series [3] relates to Monochoria vaginalis. The experiment in a line: Test Example 2: herbicidal activity, application during weed generation in submerged conditions (symbol C). The conditions noted are these: Table 23; application herbicide amount 320 g/ha; grade 0-5 by criteria of Test Example 1. In outline: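 Seeds sown in flooded alluvial soil (4 cm water) were grown in a 25-30° C greenhouse. At the one- to two-leaf stage, diluted emulsion of compound was applied to the water surface at a predetermined rate. Effect was scored 3 weeks later.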

In series [4] the test system is Digitaria ciliaris. The experiment in a line: Test Example 4: herbicidal effect by soil treatment (symbol F). The conditions noted are these: 320 g/ha. An outline of the steps:
(§1)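 Seeds were sown in sterilized diluvial soil, covered with about 1.5 cm of soil, and the soil surface was sprayed with a water-diluted emulsion of the compound at a predetermined rate. Plants grew in a greenhouse at 25° C. to 30° C.; effects were scored visually 3 weeks after application.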

For series [5], the system named is Echinochloa crus-galli var. crus-galli. The experiment in a line: Test Example 4: herbicidal effect by soil treatment (symbol H). Conditions: 320 g/ha. In outline: as §1
The subject of series [6] is Avena fatua. Briefly: Test Example 4: herbicidal effect by soil treatment (symbol I). The conditions noted are these: 320 g/ha. An outline of the steps: as §1
Series [7] deals with Lolium multiflorum Lam. The experiment in a line: Test Example 4: herbicidal effect by soil treatment (symbol K). Conditions: 320 g/ha. In outline: as §1
Series [8] relates to Chenopodium album. Briefly: Test Example 4: herbicidal effect by soil treatment (symbol O). The conditions noted are these: 320 g/ha. In outline: as §1
Series [9] relates to Stellaria media. The experiment in a line: Test Example 4: herbicidal effect by soil treatment (symbol P). The conditions noted are these: 320 g/ha. In outline:
as §1

Series [10] concerns Veronica persica. Briefly: Test Example 4: herbicidal effect by soil treatment (symbol R). Conditions: 320 g/ha. In outline: as §1
The test system of series [11] is soybean. The experiment in a line: Test Example 4: effect on crop by soil treatment (symbol d). The conditions noted are these: 320 g/ha. An outline of the steps:
(§2)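 Plants are raised in a greenhouse (25° C. to 30° C.) from spot-sown seed, which sits under about 1.5 cm of sterilized diluvial soil in a box shared with weed species.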

The subject of series [12] is rice. Briefly: Test Example 4: effect on crop by soil treatment (symbol b). The conditions noted are these: 320 g/ha. An outline of the steps:
as §2

The test system of series [13] is rapeseed. The experiment in a line: Test Example 4: effect on crop by soil treatment (symbol g). Conditions: 320 g/ha. In outline:
as §2

Series [14] relates to Echinochloa crus-galli var. crus-galli. Briefly: Test Example 5: herbicidal effect by foliage application, plastic box (symbol H). Conditions: 320 g/ha, 3 weeks after application. In outline: (§3)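 Leaf-applied emulsion, water-diluted to a preset herbicide dose, on two-week-old seedlings raised in a 25° C. to 30° C. greenhouse; injury rated at 3 weeks using earlier criteria.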

In series [15] the test system is Lolium multiflorum Lam. The experiment in a line: Test Example 5: herbicidal effect by foliage application, plastic box (symbol K). The conditions noted are these: 320 g/ha, 3 weeks after application. In outline:
as §3

Series [16] has as its system Apera spica-venti. The experiment in a line: Test Example 5: herbicidal effect by foliage application, plastic box (symbol L). Conditions: 320 g/ha, 3 weeks after application. In outline:
as §3

Series [17] concerns Stellaria media. Briefly: Test Example 5: herbicidal effect by foliage application, plastic box (symbol P). The conditions noted are these: 320 g/ha, 3 weeks after application. In outline: as §3

Turning to `CON=C(C)CC1CC(OS(=O)(=O)c2ccc(C)cc2)=C(c2c(C)cc(C)cc2C)C1=O` (centres unmarked) [1-161], the “Herbicidal effect grade, A: Echinochloa oryzacola Vasing.” value in [1] is 5 (Herbicidal ratio of 90% or more (almost completely withered)). Moreover, in series [2], the “Effect grade on crop, a: transplanted rice plant” value was 4 (Herbicidal ratio of 70% or higher and lower than 90%). In series [3], the “Herbicidal effect grade, C: Monochoria vaginalis” value (“Herbicidal effect grade, C” for short) was 3 (Herbicidal ratio of 40% or higher and lower than 70%). For the same molecule, the “F: Digitaria ciliaris, herbicidal effect grade” value (“F: Digitaria ciliaris” below) in [4] is 5 (Herbicidal ratio of 90% or more (almost completely withered)). For the same molecule, the “H: Echinochloa crus-galli var. crus-galli, herbicidal effect grade” value in series [5] was 0 (Herbicidal ratio of 5% or lower (almost no effect)); in series [14] it was 4 (Herbicidal ratio of 70% or higher and lower than 90%). In addition, the “I: Avena fatua, herbicidal effect grade” value in [6] is 0 (Herbicidal ratio of 5% or lower (almost no effect)). Besides, the “K: Lolium multiflorum Lam., herbicidal effect grade” value in [7] is 3 (Herbicidal ratio of 40% or higher and lower than 70%); in series [15] it was 5 (Herbicidal ratio of 90% or more (almost completely withered)). Besides, the “O: Chenopodium album, herbicidal effect grade” value (“O: Chenopodium album” for short) in series [8] is reported as 0 (Herbicidal ratio of 5% or lower (almost no effect)). The “P: Stellaria media, herbicidal effect grade” value in [9] and in [17] was 0 (Herbicidal ratio of 5% or lower (almost no effect)) each time. For the same molecule, in series [10], the “R: Veronica persica, herbicidal effect grade” value (“R: Veronica persica” for short) was 0 (Herbicidal ratio of 5% or lower (almost no effect)). The “d: soybean, effect grade on crop” value in series [11] is on record as 0 (Herbicidal ratio of 5% or lower (almost no effect)). Moreover, in series [12], the “b: directly sowed rice plant, effect grade on crop” value (“b: directly sowed rice plant” below) is 3 (Herbicidal ratio of 40% or higher and lower than 70%). Further, in series [13], the “g: rapeseed, effect grade on crop” value was 2 (Herbicidal ratio of 20% or higher and lower than 40%). Besides, in [16], the “L: Apera spica-venti, herbicidal effect grade” value is 5 (Herbicidal ratio of 90% or more (almost completely withered)).

`CON=C(C)CC1CC(OC(=O)N2CCCC2)=C(c2c(C)cc(C)cc2C)C1=O` (centres unmarked) [1-150]: the “Herbicidal effect grade, A: Echinochloa oryzacola Vasing.” value in [1] is listed as 5 (Herbicidal ratio of 90% or more (almost completely withered)). The “Effect grade on crop, a: transplanted rice plant” value in series [2] is 5 (Herbicidal ratio of 90% or more (almost completely withered)). In addition, the “Herbicidal effect grade, C” value in [3] is 1 (Herbicidal ratio of 5% or higher and lower than 20%). In addition, in series [4], the “F: Digitaria ciliaris” value is listed as 5 (Herbicidal ratio of 90% or more (almost completely withered)). Also, in [5], the “H: Echinochloa crus-galli var. crus-galli, herbicidal effect grade” value was 0 (Herbicidal ratio of 5% or lower (almost no effect)). Moreover, the “I: Avena fatua, herbicidal effect grade” value in series [6] is 2 (Herbicidal ratio of 20% or higher and lower than 40%). The “K: Lolium multiflorum Lam., herbicidal effect grade” value in series [7] is given as 5 (Herbicidal ratio of 90% or more (almost completely withered)). The “O: Chenopodium album” value in series [8] was 0 (Herbicidal ratio of 5% or lower (almost no effect)). Besides, the “P: Stellaria media, herbicidal effect grade” value in series [9] is 0 (Herbicidal ratio of 5% or lower (almost no effect)). For the same molecule, the “R: Veronica persica” value in [10] is 0 (Herbicidal ratio of 5% or lower (almost no effect)). In addition, the “d: soybean, effect grade on crop” value in series [11] is 0 (Herbicidal ratio of 5% or lower (almost no effect)). In addition, the “b: directly sowed rice plant” value in [12] is listed as 0 (Herbicidal ratio of 5% or lower (almost no effect)). Besides, the “g: rapeseed, effect grade on crop” value in series [13] was 0 (Herbicidal ratio of 5% or lower (almost no effect)). Further, in [14], the “H: Echinochloa crus-galli var. crus-galli, herbicidal effect (criteria 0-5)” value was 5 (Herbicidal ratio of 90% or more (almost completely withered)). Further, in series [15], the “K: Lolium multiflorum Lam., herbicidal effect (criteria 0-5)” value is 5 (Herbicidal ratio of 90% or more (almost completely withered)). In addition, the “L: Apera spica-venti, herbicidal effect (criteria 0-5)” value in series [16] was 5 (Herbicidal ratio of 90% or more (almost completely withered)). Besides, in series [17], the “P: Stellaria media, herbicidal effect (criteria 0-5)” value is 0 (Herbicidal ratio of 5% or lower (almost no effect)).

Turning to `CON=C(C)CC1CC(OC(=O)c2ccc(S(C)(=O)=O)c(C(=O)OC)c2Cl)=C(c2c(C)cc(C)cc2C)C1=O` (centres unmarked) [1-162], the “Herbicidal effect grade, A: Echinochloa oryzacola Vasing.” value in [1] is on record as 5 (Herbicidal ratio of 90% or more (almost completely withered)). Besides, the “Effect grade on crop, a: transplanted rice plant” value in series [2] is 5 (Herbicidal ratio of 90% or more (almost completely withered)). Further, in series [3], the “Herbicidal effect grade, C” value is 2 (Herbicidal ratio of 20% or higher and lower than 40%). The “F: Digitaria ciliaris” value in [4] is 5 (Herbicidal ratio of 90% or more (almost completely withered)). The “H: Echinochloa crus-galli var. crus-galli, herbicidal effect grade” value in [5] and in series [14] was 5 (Herbicidal ratio of 90% or more (almost completely withered)) in each case. In addition, the “I: Avena fatua, herbicidal effect grade” value in series [6] was 3 (Herbicidal ratio of 40% or higher and lower than 70%). The “K: Lolium multiflorum Lam., herbicidal effect grade” value in series [7] and in series [15] was 5 (Herbicidal ratio of 90% or more (almost completely withered)) each time. Moreover, in series [8], the “O: Chenopodium album” value is recorded as 0 (Herbicidal ratio of 5% or lower (almost no effect)). In addition, the “P: Stellaria media, herbicidal effect grade” value in series [9] was 0 (Herbicidal ratio of 5% or lower (almost no effect)); in [17] it was 4 (Herbicidal ratio of 70% or higher and lower than 90%). In series [10], the “R: Veronica persica” value was 0 (Herbicidal ratio of 5% or lower (almost no effect)). For the same molecule, the “d: soybean, effect grade on crop” value in series [11] is 0 (Herbicidal ratio of 5% or lower (almost no effect)). Also, the “b: directly sowed rice plant” value in [12] was 5 (Herbicidal ratio of 90% or more (almost completely withered)). In addition, the “g: rapeseed, effect grade on crop” value in series [13] is 4 (Herbicidal ratio of 70% or higher and lower than 90%). Moreover, the “L: Apera spica-venti, herbicidal effect grade” value in series [16] is 5 (Herbicidal ratio of 90% or more (almost completely withered)).

Consider `CON=C(C)CC1CC(OC(=O)N2CCN(C)CC2)=C(c2c(C)cc(C)cc2C)C1=O` (centres unmarked) [1-152], for which the “Herbicidal effect grade, A: Echinochloa oryzacola Vasing.” value in series [1] was 4 (Herbicidal ratio of 70% or higher and lower than 90%). In addition, the “Effect grade on crop, a: transplanted rice plant” value in series [2] was 2 (Herbicidal ratio of 20% or higher and lower than 40%). For the same molecule, the “Herbicidal effect grade, C” value in series [3] was 0 (Herbicidal ratio of 5% or lower (almost no effect)). Besides, the “F: Digitaria ciliaris” value in series [4] is given as 0 (Herbicidal ratio of 5% or lower (almost no effect)). Further, the “H: Echinochloa crus-galli var. crus-galli, herbicidal effect grade” value in series [5] is given as 0 (Herbicidal ratio of 5% or lower (almost no effect)). For the same molecule, the “I: Avena fatua, herbicidal effect grade” value in [6] is on record as 0 (Herbicidal ratio of 5% or lower (almost no effect)). Moreover, the “K: Lolium multiflorum Lam., herbicidal effect grade” value in [7] is 2 (Herbicidal ratio of 20% or higher and lower than 40%). In [8], the “O: Chenopodium album” value is on record as 0 (Herbicidal ratio of 5% or lower (almost no effect)). The “P: Stellaria media, herbicidal effect grade” value in series [9] is reported as 0 (Herbicidal ratio of 5% or lower (almost no effect)). The “R: Veronica persica” value in series [10] was 0 (Herbicidal ratio of 5% or lower (almost no effect)). In [11], the “d: soybean, effect grade on crop” value was 0 (Herbicidal ratio of 5% or lower (almost no effect)). Also, in series [12], the “b: directly sowed rice plant” value is 0 (Herbicidal ratio of 5% or lower (almost no effect)). For the same molecule, in series [13], the “g: rapeseed, effect grade on crop” value was 0 (Herbicidal ratio of 5% or lower (almost no effect)). The “H: Echinochloa crus-galli var. crus-galli, herbicidal effect (criteria 0-5)” value in [14] was 5 (Herbicidal ratio of 90% or more (almost completely withered)). Also, the “K: Lolium multiflorum Lam., herbicidal effect (criteria 0-5)” value in series [15] was 5 (Herbicidal ratio of 90% or more (almost completely withered)). Moreover, in series [16], the “L: Apera spica-venti, herbicidal effect (criteria 0-5)” value is listed as 5 (Herbicidal ratio of 90% or more (almost completely withered)). For the same molecule, the “P: Stellaria media, herbicidal effect (criteria 0-5)” value in series [17] is recorded as 0 (Herbicidal ratio of 5% or lower (almost no effect)).

The record behind these values is patent US11000033B2, “Ketone or oxime compound, and herbicide” (NISSAN CHEMICAL CORPORATION, priority 2014, dated 2021).
